Literature values, collected in patent US20150320814A1, “NUTRACEUTICAL FORMULATION FOR TREATMENT OF ANXIETY AND DEPRESSION” (priority 2014, published 2015).
Values belong to the compound of their own block, whether it stands above or below them.

Tests used:
GABA receptors = details: isolated from skullcap
alpha brain waves = details: sixty minutes after oral administration, volunteers
[1] = tested on: patients with major depression; details: 125-300 mg of magnesium with each meal and at bedtime
[2] = in vivo
[3] = tested on: patients with clinical depression; details: patients with clinical depression treated with nicotinic acid

activity at GABA receptors (GABA receptors): agonists of GABA receptors
Structure (SMILES): O=C(O)[C@H]1O[C@@H](Oc2cc3oc(-c4ccccc4)cc(=O)c3c(O)c2O)[C@H](O)[C@@H](O)[C@@H]1O [baicalin]

Structure (SMILES): NCCCC(=O)O [GABA, gamma aminobutyric acid]
alpha brain waves by electroencephalogram (alpha brain waves): increases in alpha brain waves

activity at GABA receptors (GABA receptors): agonists of GABA receptors
Structure (SMILES): O=c1cc(-c2ccccc2)oc2cc(O)c(O)c(O)c12 [baicalein]

Structure (SMILES): [Mg+2] [magnesium]
recovery from major depression [1]: Rapid recovery

blood brain barrier passage [2]: passes through the blood brain barrier
Structure (SMILES): CCNC(=O)CC[C@H](N)C(=O)O [Theanine, L-theanine]

Structure (SMILES): O=C(O)c1cccnc1 [nicotinic acid]
patients showing significant improvements in mood [3]: 14 of 15
